{"source": "patent US10626058B2", "about": "“Urea ammonium sulphate-based composition and method for the manufacture thereof” (YARA INTERNATIONAL ASA, priority 2015, dated 2020)", "type": "physicochemical", "conditions": "for half-life time for nBTPT: stored in bags at room temperature (20-25° C.); for effect of added alkaline compound on stability of nBTPT on UAS: UAS+500 ppm nBTPT powder+2350 ppm rapeseed oil, 12 days open to air storage at 30° C. in an oven", "experimental": "For lab scale experiments, 1.2 kg of solid fertilizer material was added to a lab scale drum. In a next step, the nBTPT material was slowly added. A residence time of 10 minutes was applied and the rotating speed of the drum was consequently the same in each experiment. In case a moisture repellent coating was added, a nebulizer was used and depending on the order of addition, the moisture repellent coating was added before or after addition of the nBTPT material. Before use, the moisture repellent coating was preheated to 80° C. Larger scale experiments with amounts up to 40 kg of fertilizer material were performed in a concrete mixer.\nThe samples were stored under several conditions, dependent on the type of samples: • 20° C. closed plastic container with head space (Climate chamber, 80% relative humidity) • Bagged at room temperature (20-25° C.) or in nissenhut • Open to air in nissenhut • Cylinder test in nissenhut • Open pile in nissenhut\nFor some samples, an accelerated stability test was done storing these samples at elevated temperatures: • Oven of 30° C. closed plastic container • Oven of 30° C. open to air • 30° C./60% RH open to air • 70° C. closed plastic container\nTypically, a day/night cycle is generated in the nissenhut, with temperature fluctuations between 0 to 42° C. and fluctuations of relative humidity between 20 and 90%, which can be compared with real life storage in silos.\nHPLC analysis of nBTPT is done as described in the procedure CEN 15688-2007.", "note": "Like-named read-outs stand apart in the source and are kept apart here.", "data": [{"molecule": "CCCCNP(N)(N)=S", "note": "[nBTPT, N-(n-butyl) thiophosphoric triamide]", "values": [{"measurement": "effect of moisture repellent coating and of solid particulate form on stability of nBTPT on UAS", "setting": "7 days in closed plastic containers with head space at 20° C./80% relative humidity, FIG. 10", "result": "beneficial effect"}, {"measurement": "effect of calcium oxide addition and of solid particulate form on stability of nBTPT on UAS", "setting": "16 days in bags at nissenhut (16-42° C./27-77% relative humidity), FIG. 8", "result": "beneficial effect"}, {"measurement": "effect of calcium oxide addition and of bagged storage on stability of nBTPT on UAS", "setting": "16 days in nissenhut (16-42° C./27-77% relative humidity), FIG. 9", "result": "beneficial effect"}, {"measurement": "effect of calcium oxide, solid particulate form, moisture repellent coating and bagged storage on stability of nBTPT on UAS", "setting": "16 days in nissenhut (16-42° C./27-77% relative humidity), FIG. 12", "result": "beneficial effect"}, {"measurement": "effect of solid particulate form and of bagged storage on stability of nBTPT on UAS", "setting": "28 days at room temperature (20-25° C.), FIG. 11", "result": "beneficial effect"}, {"measurement": "effect of bagged versus open to air storage on stability of nBTPT on UAS", "setting": "solid nBTPT (500 ppm), 28 days at room temperature (20-25° C.)", "result": "beneficial effect"}, {"measurement": "half-life time for nBTPT", "setting": "solid particulate form on UAS plus alkaline or alkaline-forming compound and moisture repellent coating", "result": "6-12 months"}, {"measurement": "half-life time for nBTPT", "setting": "urease inhibitor in liquid form on UAS", "result": "only a few days"}, {"measurement": "half-life time for nBTPT", "setting": "urease inhibitor in solid particulate form on UAS", "result": "up to 4 months"}]}, {"molecule": "O=C([O-])[O-].[Ca+2]", "note": "[calcium carbonate]", "values": [{"measurement": "effect of added alkaline compound on stability of nBTPT on UAS", "result": "stabilizing effect"}]}, {"molecule": "[O]=[Zn]", "note": "[zinc oxide]", "values": [{"measurement": "effect of added alkaline compound on stability of nBTPT on UAS", "result": "best effect"}]}, {"molecule": "[O]=[Ca]", "note": "[calcium oxide]", "values": [{"measurement": "effect of added calcium oxide on stability of nBTPT on UAS", "setting": "500-2350 ppm calcium oxide, UAS+500 ppm nBTPT powder, 8 days open to air at nissenhut (16-42° C./27-77% relative humidity)", "result": "large stabilizing effect"}, {"measurement": "effect of added alkaline compound on stability of nBTPT on UAS", "result": "stabilizing effect"}]}]}
